These results are taken from paper PMC4946967 (ACS chemical biology, 2016).

Positions count from the first letter of the chain named. Entries after “also recorded” stand apart in the source; their conditions may differ. Where only a bound is given, the exact number is not on record here.

For data set [1], the system named is Flp-In 293 T-REx cells expressing RNR-α-Flag.
For data set [2], the system named is Flp-In 293 T-REx cells expressing D57N-α-Flag.
Data set [3] addresses T1, mutant (D57N)-mouse(m)RNR-α (Mus musculus, UniProt P07742, D57N).
T1 sequence (P07742 1-792 D57N): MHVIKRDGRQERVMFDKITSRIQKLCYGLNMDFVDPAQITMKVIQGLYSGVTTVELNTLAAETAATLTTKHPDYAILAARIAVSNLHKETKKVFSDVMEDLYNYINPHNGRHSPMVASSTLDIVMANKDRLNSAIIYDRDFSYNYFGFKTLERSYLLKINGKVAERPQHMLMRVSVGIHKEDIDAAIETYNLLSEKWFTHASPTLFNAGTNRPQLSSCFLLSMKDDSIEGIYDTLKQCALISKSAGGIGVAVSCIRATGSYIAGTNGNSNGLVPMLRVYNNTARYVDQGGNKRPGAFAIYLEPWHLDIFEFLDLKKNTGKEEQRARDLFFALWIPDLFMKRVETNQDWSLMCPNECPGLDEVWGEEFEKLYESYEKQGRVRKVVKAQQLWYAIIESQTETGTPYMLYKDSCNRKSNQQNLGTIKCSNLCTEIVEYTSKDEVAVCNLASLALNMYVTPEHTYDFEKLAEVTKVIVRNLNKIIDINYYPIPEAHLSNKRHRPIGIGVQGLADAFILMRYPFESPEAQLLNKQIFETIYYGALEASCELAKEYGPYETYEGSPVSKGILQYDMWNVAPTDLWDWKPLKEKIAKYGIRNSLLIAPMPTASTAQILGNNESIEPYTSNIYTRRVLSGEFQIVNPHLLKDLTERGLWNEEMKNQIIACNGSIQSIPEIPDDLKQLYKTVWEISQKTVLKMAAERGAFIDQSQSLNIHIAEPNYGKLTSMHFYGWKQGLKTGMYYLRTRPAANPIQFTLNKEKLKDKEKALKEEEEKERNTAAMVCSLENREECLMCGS
Format: cell-based. The following applies: 3 h treatment; 5, 50, 300 μM ClF, ClA, FlUMP; D57N-mRNR-α 3T3 cells.

The next data set has as its target T2, D57N-human RNR-α mutant (Homo sapiens, UniProt P23921, D57N).
T2 sequence (P23921 1-792 D57N): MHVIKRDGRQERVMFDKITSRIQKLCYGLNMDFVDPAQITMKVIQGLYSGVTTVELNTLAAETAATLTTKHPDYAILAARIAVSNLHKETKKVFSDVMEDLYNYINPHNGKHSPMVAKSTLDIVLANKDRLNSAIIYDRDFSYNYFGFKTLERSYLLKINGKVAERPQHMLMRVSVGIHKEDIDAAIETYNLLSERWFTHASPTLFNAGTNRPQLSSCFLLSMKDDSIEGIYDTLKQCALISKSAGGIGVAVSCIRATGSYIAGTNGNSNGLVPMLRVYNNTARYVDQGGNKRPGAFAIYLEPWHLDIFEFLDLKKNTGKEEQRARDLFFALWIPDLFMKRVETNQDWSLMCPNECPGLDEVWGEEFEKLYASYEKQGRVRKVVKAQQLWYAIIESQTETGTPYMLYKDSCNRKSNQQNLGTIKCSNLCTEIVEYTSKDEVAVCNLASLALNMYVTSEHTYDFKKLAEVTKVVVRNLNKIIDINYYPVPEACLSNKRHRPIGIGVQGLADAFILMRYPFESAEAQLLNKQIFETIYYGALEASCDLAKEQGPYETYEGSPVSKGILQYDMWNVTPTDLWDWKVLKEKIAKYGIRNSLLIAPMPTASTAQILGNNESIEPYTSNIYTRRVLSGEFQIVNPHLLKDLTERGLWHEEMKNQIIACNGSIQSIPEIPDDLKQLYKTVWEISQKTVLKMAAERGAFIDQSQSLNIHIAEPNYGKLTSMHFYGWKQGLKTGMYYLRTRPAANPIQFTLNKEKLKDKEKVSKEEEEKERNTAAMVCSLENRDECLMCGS
The following applies: cited from earlier work.

Another data set relates to E. coli RNR. The following applies: cited from earlier work.
Data set [4] deals with T3, RNR-α (Homo sapiens, UniProt P23921).
T3 sequence (P23921 1-792): T2 sequence (P23921 1-792 D57N) with N57D
Description: RNR-α-specific CDP/ATP-reductase activity inhibition assay. Format: biochemical.

Data set [5] deals with T3, RNR-α. The following applies: cited from earlier work.
In another data set the target is T4, RNR-β (Homo sapiens, UniProt P31350).
T4 sequence (P31350 1-389): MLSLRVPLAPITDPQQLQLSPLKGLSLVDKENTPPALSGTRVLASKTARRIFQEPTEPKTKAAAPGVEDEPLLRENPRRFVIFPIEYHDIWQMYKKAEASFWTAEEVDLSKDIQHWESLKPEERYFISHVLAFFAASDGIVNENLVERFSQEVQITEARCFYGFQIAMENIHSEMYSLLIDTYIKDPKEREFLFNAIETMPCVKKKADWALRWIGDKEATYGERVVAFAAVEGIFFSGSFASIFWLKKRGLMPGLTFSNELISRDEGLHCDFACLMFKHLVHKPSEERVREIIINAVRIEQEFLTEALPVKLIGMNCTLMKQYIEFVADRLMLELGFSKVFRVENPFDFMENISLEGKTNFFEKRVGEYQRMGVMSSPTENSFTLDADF
Description: RNR β-specific activity assay. Format: biochemical.

For the molecule `Nc1nc(Cl)nc2c1ncn2[C@@H]1O[C@H](CO)[C@@H](O)[C@@H]1F` [ClF, clofarabine], in data set [1], the “effect of RNR-α overexpression on cytotoxicity relative to noninduced cells” value is reported as “small effect on the EC50”. For the same molecule, in data set [2], the “protection against cytotoxicity upon tet induction relative to noninduced” value is given as above 20 fold. The “RNR reductase activity in D57N-α-expressing lines after drug treatment” value in data set [3] was “resistance”.

On to `Nc1nc(Cl)nc2c1ncn2[C@@H]1O[C@H](COP(=O)(O)OP(=O)(O)O)[C@@H](O)[C@@H]1F` [ClFDP, clofarabine diphosphate], for which the “inhibition of D57N-α-specific RNR activity” value at D57N-human RNR-α mutant is “can inhibit; also recorded: able to inhibit both wt- and D57N-α with similar potency”. Moreover, the “inhibition of E. coli RNR” value with E. coli RNR is recorded as “failed to inhibit”. On RNR-α [4], the “higher affinity than ClADP and FlUDP” value is 10–100 fold.

With `Nc1ccn([C@@H]2O[C@H](COP(=O)(O)OP(=O)(O)OP(=O)(O)O)[C@@H](O)C2(F)F)c(=O)n1` [F2CTP], at RNR-α [5], the “effect on RNR-α oligomeric state or holoenzyme activity” value is listed as “no effect”.

As to `NC(=S)N/N=C/c1ncccc1N` [triapine], the β-specific activity entry at RNR-β is given as “suppressed”.
